Reference: US20070280924A1, “Pharmaceutical Preparations For And Treatment Of Ocular Surface and Other Disorders” (priority 2004, published 2007)

Assays:
[1] = for comparison; cited from earlier work
[2] = tested on: human corneal epithelial cell lines (HCE-T and CEPI-17-CI.4) and human conjunctival epithelial cells
Method: Hypromellose, Carbopol or sodium hyaluronate were used to supplement an ocular surface medium at concentrations ranging from 0.0001% to 0.4%. The pH and osmolarity of all of the resultant formulations were controlled and adjusted to be within physiological range. The biophysical properties, i.e. viscosity and surface tension, were determined with a rheometer and an electronic manometer. Two human corneal epithelial cell lines (HCE-T and CEPI-17-CI.4) and two human conjunctival epithelial cells were used to investigate cell proliferation, viability and migration in response to the formulations by means of a luminescence based ATP-assay, a calcein AM/EthD-1 assay and a colony dispersion assay.

Compound | Surface tension [1] | Toxicity [2]
O [water] | about 70 mN/m | 
hypromellose |  | low toxicity
